{
  "source": "BindingDB's records for doi:10.1073/pnas.74.9.3805",
  "about": "(1977)",
  "target": "Gamma-aminobutyric acid receptor subunit alpha-1 (Rattus norvegicus, UniProt P62813)",
  "sequence (P62813 whole entry)": "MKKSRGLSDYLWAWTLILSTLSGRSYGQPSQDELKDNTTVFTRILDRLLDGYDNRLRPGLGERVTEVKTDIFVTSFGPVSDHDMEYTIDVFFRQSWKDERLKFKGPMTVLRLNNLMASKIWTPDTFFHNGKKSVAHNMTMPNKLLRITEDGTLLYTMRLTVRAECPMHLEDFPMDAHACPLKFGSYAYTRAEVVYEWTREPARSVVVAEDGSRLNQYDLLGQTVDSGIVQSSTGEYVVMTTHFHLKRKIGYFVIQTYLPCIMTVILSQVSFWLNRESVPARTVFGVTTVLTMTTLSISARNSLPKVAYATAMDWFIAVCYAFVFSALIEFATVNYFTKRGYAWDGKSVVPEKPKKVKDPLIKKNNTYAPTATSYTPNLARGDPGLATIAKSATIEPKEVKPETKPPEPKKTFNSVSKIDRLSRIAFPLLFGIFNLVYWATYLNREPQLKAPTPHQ",
  "note": "Where “and” joins values, the source holds several entries; their conditions need not be identical. Equal entries are not always repeated.",
  "data": [
    {"compound": "O=C1CN=C(c2ccccc2Cl)c2cc([N+](=O)[O-])ccc2N1", "note": "[5-(2-chlorophenyl)-7-nitro-1,3-dihydro-2H-1,4-benzodiazepin-2-one]", "values": [
      {"measurement": "Ki", "value": "5.08 µM and 2.9 µM and 7.9 µM"}
    ]}
  ]
}
